Usually TD50 stands for the 50% point of the dose-response relation for the toxic effect studied.

The data set relates to rodent lifetime carcinogenesis bioassay, tumor incidence TD50. In words: chronic cancer bioassays in animals – CPDB, compiled studies (AID 1745844).
Setting [1] is: mouse, strain B6AKF1, females, oral dosing, site: liver, lesion: hepatoma, dosed 76 weeks, study length 76 weeks.
[2] abbreviates: mouse, strain B6AKF1, females, oral dosing, site: lung, lesion: adenoma, dosed 76 weeks, study length 76 weeks.
Setting [3] is: mouse, strain B6AKF1, males, oral dosing, site: any site (literature study), lesion: several types, types named in the paper, dosed 76 weeks, study length 76 weeks.
The mark [4] stands for this setting: mouse, strain B6AKF1, males, oral dosing, site: liver, lesion: hepatoma, dosed 76 weeks, study length 76 weeks.
The mark [5] stands for this setting: mouse, strain B6AKF1, males, oral dosing, site: lung, lesion: adenoma, dosed 76 weeks, study length 76 weeks.
[6] abbreviates: mouse, strain B6C3F1, females, oral dosing, site: any site (literature study), lesion: one or several types, types not named, dosed 76 weeks, study length 76 weeks.
Setting [7] is: mouse, strain B6C3F1, females, oral dosing, site: liver, lesion: hepatoma, dosed 76 weeks, study length 76 weeks.
Setting [8] is: mouse, strain B6C3F1, females, oral dosing, site: lung, lesion: several types, types named in the paper, dosed 76 weeks, study length 76 weeks.
Setting [9] is: mouse, strain B6C3F1, males, oral dosing, site: lung, lesion: adenoma, dosed 76 weeks, study length 76 weeks.

Activity calls are given as the source filed them. No rule for the calls is given here.

With `O=[N+]([O-])c1ccc2c(c1)Cc1ccccc1-2`, the TD50 runs as follows: (rat, strain Wistar, males, in feed, site: forestomach, lesion: several types, types named in the paper, dosed 47 weeks, study length 104 weeks) 0.285 mg/kg/day; (rat, strain Wistar, males, in feed, site: forestomach, lesion: squamous-cell carcinoma, dosed 47 weeks, study length 104 weeks) 1.12 mg/kg/day; (rat, strain Wistar, males, in feed, site: kidney, lesion: cortical carcinoma, dosed 47 weeks, study length 104 weeks) 2.35 mg/kg/day; (rat, strain Wistar, males, in feed, site: kidney, lesion: several types, types named in the paper, dosed 47 weeks, study length 104 weeks) 3 mg/kg/day; (rat, strain Wistar, males, in feed, site: liver, lesion: hepatocellular carcinoma, dosed 47 weeks, study length 104 weeks) 2.1 mg/kg/day.
For `O=[N+]([O-])c1ccc(-c2nc(N3CCOCC3)c3ccccc3n2)s1`, for the setting “rat, strain Sprague-Dawley, females, in feed, site: any site (literature study), lesion: several types, types named in the paper, dosed 46 weeks, study length 66 weeks”, the TD50 is 5.03 mg/kg/day.
`C=C(C)C(=O)Nc1ccc(Cl)c(Cl)c1`: the carcinogen call (mouse, strain B6AKF1, females, oral dosing, site: any site (literature study), lesion: several types, types named in the paper, dosed 76 weeks, study length 76 weeks) was “negative (inactive)”; the carcinogen call under setting [1] is “negative (inactive)”; the carcinogen call under setting [2] was “negative (inactive)”; the carcinogen call under setting [5] is “negative (inactive)”; the carcinogen call under setting [6] was “negative (inactive)”; the carcinogen call under setting [7] is “negative (inactive)”. Besides, the carcinogen call under setting [8] is “negative (inactive)”. In addition, the TD50 is, setting by setting: under setting [3], 49.1 mg/kg/day (inactive); under setting [4], 27.1 mg/kg/day (inactive); (mouse, strain B6C3F1, males, oral dosing, site: any site (literature study), lesion: several types, types named in the paper, dosed 76 weeks, study length 76 weeks) 5.39 mg/kg/day (inactive); (mouse, strain B6C3F1, males, oral dosing, site: liver, lesion: hepatoma, dosed 76 weeks, study length 76 weeks) 15.2 mg/kg/day (inactive); under setting [9], 23.7 mg/kg/day (inactive).
On to `O=NN1CCOC1=O`, for which the TD50 (rat, strain MRC-Wistar, males, in drinking water, site: any site (literature study), lesion: one or several types, types not named, dosed 70 weeks, study length 70 weeks) is 0.335 mg/kg/day; the TD50 (rat, strain MRC-Wistar, males, in drinking water, site: intestine, lesion: several types, types named in the paper, dosed 70 weeks, study length 70 weeks) was 0.729 mg/kg/day; the TD50 (rat, strain MRC-Wistar, males, in drinking water, site: liver, lesion: several types, types named in the paper, dosed 64 weeks, study length 64 weeks) is 0.582 mg/kg/day; the TD50 (rat, strain MRC-Wistar, males, in drinking water, site: liver, lesion: several types, types named in the paper, dosed 70 weeks, study length 70 weeks) is 1.15 mg/kg/day. Besides, the carcinogen call (rat, strain MRC-Wistar, males, in drinking water, site: intestine, lesion: several types, types named in the paper, dosed 64 weeks, study length 64 weeks) was “positive”.
Take `c1ccc2c(c1)[nH]c1ccccc12`: the TD50 reads like this: (mouse, strain B6C3F1, females, in feed, site: forestomach, lesion: papilloma, dosed 96 weeks, study length 104 weeks) 1290 mg/kg/day; (mouse, strain B6C3F1, females, in feed, site: forestomach, lesion: several types, types named in the paper, dosed 96 weeks, study length 104 weeks) 1960 mg/kg/day; (mouse, strain B6C3F1, females, in feed, site: liver, lesion: hepatocellular carcinoma, dosed 96 weeks, study length 104 weeks) 102 mg/kg/day; (mouse, strain B6C3F1, males, in feed, site: forestomach, lesion: papilloma, dosed 96 weeks, study length 104 weeks) 7030 mg/kg/day; (mouse, strain B6C3F1, males, in feed, site: forestomach, lesion: several types, types named in the paper, dosed 96 weeks, study length 104 weeks) 2790 mg/kg/day; (mouse, strain B6C3F1, males, in feed, site: forestomach, lesion: squamous-cell carcinoma, dosed 96 weeks, study length 104 weeks) 4940 mg/kg/day. In addition, the TD50 (mouse, strain B6C3F1, males, in feed, site: liver, lesion: hepatocellular carcinoma, dosed 96 weeks, study length 104 weeks) is 424 mg/kg/day.
`OC[C@@H](O)[C@@H](O)[C@H](O)[C@H](O)CO`: the TD50 is, setting by setting: (mouse, strain B6C3F1, females, in feed, site: all sites, lesion: hemangiosarcoma, dosed 103 weeks, study length 104 weeks) 46700 mg/kg/day (inactive); (mouse, strain B6C3F1, females, in feed, site: all sites, lesion: lymphocytic leukemia, dosed 103 weeks, study length 104 weeks) 48000 mg/kg/day; (mouse, strain B6C3F1, males, in feed, site: lung, lesion: alveolar/bronchiolar adenoma + alveolar/bronchiolar carcinoma, dosed 103 weeks, study length 104 weeks) 98100 mg/kg/day; (rat, strain Fischer 344, females, in feed, site: any site (literature study), lesion: several types, types named in the paper, dosed 103 weeks, study length 104 weeks) 5000 mg/kg/day (inactive); (rat, strain Fischer 344, males, in feed, site: liver, lesion: hepatocellular adenoma + hepatocellular carcinoma + neoplastic nodule, dosed 103 weeks, study length 104 weeks) 18000 mg/kg/day. Further, the carcinogen call is, setting by setting: (mouse, strain B6C3F1, males, in feed, site: any site (literature study), lesion: several types, types named in the paper, dosed 103 weeks, study length 104 weeks) “negative (inactive)”; (rat, strain Fischer 344, males, in feed, site: any site (literature study), lesion: several types, types named in the paper, dosed 103 weeks, study length 104 weeks) “negative (inactive)”.
In the case of `[Cl][Sn][Cl]`, the TD50 is, setting by setting: (mouse, strain B6C3F1, females, in feed, site: all sites, lesion: lymphoma, histiocytic type, dosed 105 weeks, study length 105 weeks) 2550 mg/kg/day; (mouse, strain B6C3F1, females, in feed, site: any site (literature study), lesion: several types, types named in the paper, dosed 105 weeks, study length 105 weeks) 386 mg/kg/day; (mouse, strain B6C3F1, females, in feed, site: liver, lesion: hepatocellular adenoma + hepatocellular carcinoma + neoplastic nodule, dosed 105 weeks, study length 105 weeks) 1020 mg/kg/day; (mouse, strain B6C3F1, females, in feed, site: liver, lesion: hepatocellular carcinoma, dosed 105 weeks, study length 105 weeks) 1420 mg/kg/day; (mouse, strain B6C3F1, females, in feed, site: pituitary gland, lesion: adenoma, dosed 105 weeks, study length 105 weeks) 1390 mg/kg/day (inactive); (rat, strain Fischer 344, females, in feed, site: any site (literature study), lesion: several types, types named in the paper, dosed 105 weeks, study length 104 weeks) 12000 mg/kg/day (inactive). For the same compound, the TD50 is 676000 mg/kg/day (rat, strain Fischer 344, females, in feed, site: liver, lesion: hepatocellular adenoma + hepatocellular carcinoma + neoplastic nodule, dosed 105 weeks, study length 104 weeks); 180 mg/kg/day (rat, strain Fischer 344, males, in feed, site: any site (literature study), lesion: several types, types named in the paper, dosed 104 weeks, study length 104 weeks); 951 mg/kg/day (rat, strain Fischer 344, males, in feed, site: lung, lesion: alveolar/bronchiolar adenoma, dosed 104 weeks, study length 104 weeks); 87.4 mg/kg/day (inactive) (rat, strain Fischer 344, males, in feed, site: thyroid gland, lesion: c-cell adenoma + c-cell carcinoma, dosed 104 weeks, study length 104 weeks); 405 mg/kg/day (rat, strain Fischer 344, males, in feed, site: thyroid gland, lesion: c-cell carcinoma, dosed 104 weeks, study length 104 weeks). Besides, the carcinogen call by setting is: (mouse, strain B6C3F1, males, in feed, site: any site (literature study), lesion: several types, types named in the paper, dosed 105 weeks, study length 105 weeks) “negative (inactive)”; (mouse, strain Charles River CD1, both sexes, in drinking water, site: any site (literature study), lesion: benign tumor, dosed 104 weeks, study length 104 weeks) “negative (inactive)”; (mouse, strain Charles River CD1, both sexes, in drinking water, site: any site (literature study), lesion: malignant tumor, dosed 104 weeks, study length 104 weeks) “negative (inactive)”; (mouse, strain Charles River CD1, both sexes, in drinking water, site: any site (literature study), lesion: several types, types named in the paper, dosed 104 weeks, study length 104 weeks) “negative (inactive)”; (mouse, strain Charles River CD1, both sexes, in drinking water, site: lung, lesion: adenoma, dosed 104 weeks, study length 104 weeks) “negative (inactive)”; (mouse, strain Charles River CD1, both sexes, in drinking water, site: lung, lesion: several types, types named in the paper, dosed 104 weeks, study length 104 weeks) “negative (inactive)”. Besides, the carcinogen call is “negative (inactive)” (rat, strain Long-Evans BLU:(LE), both sexes, in drinking water, site: any site (literature study), lesion: malignant tumor, dosed 156 weeks, study length 156 weeks); “negative (inactive)” (rat, strain Long-Evans BLU:(LE), both sexes, in drinking water, site: any site (literature study), lesion: one or several types, types not named, dosed 156 weeks, study length 156 weeks); “negative (inactive)” (rat, strain Long-Evans BLU:(LE), both sexes, in drinking water, site: liver, lesion: one or several types, types not named, dosed 156 weeks, study length 156 weeks).
`N[C@@H](Cc1cnc[nH]1)C(=O)O`: the carcinogen call (rat, strain F344/DuCrj, females, in feed, site: liver, lesion: hepatocellular adenoma, dosed 104 weeks, study length 107 weeks) was “negative (inactive)”. Further, the TD50 (rat, strain F344/DuCrj, males, in feed, site: liver, lesion: hepatocellular adenoma, dosed 104 weeks, study length 107 weeks) is 52200 mg/kg/day (inactive).
`Oc1c(Cl)cc(Cl)cc1Sc1cc(Cl)cc(Cl)c1O`: the carcinogen call under setting [1] was “negative (inactive)”; the carcinogen call under setting [2] was “negative (inactive)”; the carcinogen call under setting [3] is “negative (inactive)”; the carcinogen call under setting [4] was “negative (inactive)”; the carcinogen call under setting [5] was “negative (inactive)”; the carcinogen call under setting [6] was “negative (inactive)”. Moreover, the carcinogen call by setting is: under setting [7], “negative (inactive)”; under setting [8], “negative (inactive)”; (mouse, strain B6C3F1, males, oral dosing, site: lung, lesion: several types, types named in the paper, dosed 76 weeks, study length 76 weeks) “negative (inactive)”. The TD50 is 100 mg/kg/day under setting [2]; 43 mg/kg/day (mouse, strain B6C3F1, females, oral dosing, site: any site (literature study), lesion: several types, types named in the paper, dosed 76 weeks, study length 76 weeks); 88.2 mg/kg/day (mouse, strain B6C3F1, males, oral dosing, site: liver, lesion: angioma, dosed 76 weeks, study length 76 weeks); 2.28 mg/kg/day (inactive) (mouse, strain B6C3F1, males, oral dosing, site: liver, lesion: several types, types named in the paper, dosed 76 weeks, study length 76 weeks); 88.2 mg/kg/day under setting [9].
As for `CC(C)(C)NC(=O)[C@H]1CC[C@H]2[C@@H]3CC[C@H]4NC(=O)C=C[C@]4(C)[C@H]3CC[C@]12C`, for the setting “mouse, strain Charles River CD1, males, by gavage, site: testis, lesion: Leydig-cell adenoma, dosed 83 weeks, study length 83 weeks”, the TD50 is 326 mg/kg/day.

(Values after PubChem BioAssay AID1745844 (Carcinogenic Potency Database (CPDB), 2022).)
